Data as given in patent US20250154141A1 (University of Florida Research Foundation, Incorporated, priority 2021, published 2025).
pIC50: −log10 of the molar value. Where two headings read alike, the source gives them in different places.

Columns and labels:
[1] = system: MOLT-4; assay: Cell viability assay (MTS) in MOLT-4 cells; format: cell-based; conditions: Homo sapiens
Procedure: (§1) Acute lymphoblastic leukemia cells (MOLT-4 and RS4; 11) were incubated with increasing concentrations of Bcl-xL degraders for 48 h. Cell viability was measured by tetrazolium-based MTS assay.

[2] = system: RS4; 11; assay: Cell viability assay (MTS) in RS4; 11 cells; format: cell-based; conditions: Homo sapiens
Procedure: as §1

[3] = MOLT-4, Table 2, 48 hr, MTS, read-out: Anti-Cancer Activity IC50 (48 hr) MOLT-4
[4] = MOLT-4, Table 4, 48 h, read-out: MOLT-4 48 h IC50
[5] = RS4-11, Table 2, 48 hr, MTS, read-out: Anti-Cancer Activity IC50 (48 hr) RS4, 11
[6] = RS4-11, Table 4, 48 h, read-out: RS4 48 h IC50

pIC50 [1, 3]	pIC50 [2, 5]	SMILES	further results
> 7.70	> 7.70	Cc1ncsc1-c1ccc([C@H](C)NC(=O)[C@@H]2C[C@@H](O)CN2C(=O)[C@@H](NC(=O)CCCCCCC(=O)N2CCN(C[C@]3(C)CCC(c4ccc(Cl)cc4)=C(CN4CCN(c5ccc(C(=O)NS(=O)(=O)c6ccc(N[C@H](CCN7CCCOCC7)CSc7ccccc7)c(S(=O)(=O)C(F)(F)F)c6)cc5)CC4)C3)CC2)C(C)(C)C)cc1 [Compound 59, (2S,4R)-1-((S)-2-(8-(4-(((R)-6-((4-(4-(((4-(((R)-4-(1,4-oxazepan-4-yl)-1-(phenylthio)butan-2-yl)amino)-3-((trifluoromethyl)sulfonyl)phenyl)sulfonyl)carbamoyl)phenyl)piperazin-1-yl)methyl)-4′-chloro-4-methyl-2,3,4,5-tetrahydro-[1,1′-biphenyl]-4-yl)methyl)piperazin-1-yl)-8-oxooctanamido)-3,3-dimethylbutanoyl)-4-hydroxy-N—((S)-1-(4-(4-methylthiazol-5-yl)phenyl)ethyl)pyrrolidine-2-carboxamide]	pIC50 [1, 4]: 9.15; pIC50 [2, 6]: 8.80
–	–	Cc1ncsc1-c1ccc([C@H](C)NC(=O)[C@@H]2C[C@@H](O)CN2C(=O)[C@@H](NC(=O)CCCCC(=O)N2CCN(C3CCN(C[C@]4(C)CCC(c5ccc(Cl)cc5)=C(CN5CCN(c6ccc(C(=O)NS(=O)(=O)c7ccc(N[C@H](CCN8CCCOCC8)CSc8ccccc8)c(S(=O)(=O)C(F)(F)F)c7)cc6)CC5)C4)CC3)CC2)C(C)(C)C)cc1 [Compound 119]	pIC50 ([1]; MOLT-4, Table 2A, 48 hr, MTS, read-out: Anti-Cancer Activity IC50 (48 hr) MOLT-4): > 7.70; pIC50 ([2]; RS4-11, Table 2A, 48 hr, MTS, read-out: Anti-Cancer Activity IC50 (48 hr) RS4, 11): > 7.70
6.30 to 7.00	7.00 to 7.70	Cc1ncsc1-c1ccc([C@H](C)NC(=O)[C@@H]2C[C@@H](O)CN2C(=O)[C@@H](NC(=O)CCCCCCC(=O)N2CCN(CC3(C)CCC(c4ccc(Cl)cc4)=C(CN4CCN(c5ccc(C(=O)NS(=O)(=O)c6ccc(N[C@H](CCN7CCCCC7CO)CSc7ccccc7)c([N+](=O)[O-])c6)cc5)CC4)C3)CC2)C(C)(C)C)cc1 (stereo partly drawn) [Compound 45, (2S,4R)-1-((2S)-2-(8-(4-((4′-chloro-6-((4-(4-(((4-(((2R)-4-(2-(hydroxymethyl)piperidin-1-yl)-1-(phenylthio)butan-2-yl)amino)-3-nitrophenyl)sulfonyl)carbamoyl)phenyl)piperazin-1-yl)methyl)-4-methyl-2,3,4,5-tetrahydro-[1,1′-biphenyl]-4-yl)methyl)piperazin-1-yl)-8-oxooctanamido)-3,3-dimethylbutanoyl)-4-hydroxy-N—((S)-1-(4-(4-methylthiazol-5-yl)phenyl)ethyl)pyrrolidine-2-carboxamide]	–
6.30 to 7.00	7.00 to 7.70	Cc1ncsc1-c1ccc([C@H](C)NC(=O)[C@@H]2C[C@@H](O)CN2C(=O)[C@@H](NC(=O)CCCCCCC(=O)N2CCN(C[C@]3(C)CCC(c4ccc(Cl)cc4)=C(CN4CCN(c5ccc(C(=O)NS(=O)(=O)c6ccc(N[C@H](CCN7CCc8cccnc8C7)CSc7ccccc7)c([N+](=O)[O-])c6)cc5)CC4)C3)CC2)C(C)(C)C)cc1 [Compound 57, (2S,4R)-1-((S)-2-(8-(4-(((R)-4′-chloro-6-((4-(4-(((4-(((R)-4-(5,8-dihydro-1,7-naphthyridin-7(6H)-yl)-1-(phenylthio)butan-2-yl)amino)-3-nitrophenyl)sulfonyl)carbamoyl)phenyl)piperazin-1-yl)methyl)-4-methyl-2,3,4,5-tetrahydro-[1,1′-biphenyl]-4-yl)methyl)piperazin-1-yl)-8-oxooctanamido)-3,3-dimethylbutanoyl)-4-hydroxy-N—((S)-1-(4-(4-methylthiazol-5-yl)phenyl)ethyl)pyrrolidine-2-carboxamide]	–
7.00 to 7.70	7.00 to 7.70	Cc1ncsc1-c1ccc([C@H](C)NC(=O)[C@@H]2C[C@@H](O)CN2C(=O)[C@@H](NC(=O)CCCNC(=O)c2ccc(N3CCN(CC4(C)CCC(c5ccc(Cl)cc5)=C(CN5CCN(c6ccc(C(=O)NS(=O)(=O)c7ccc(N[C@H](CCN8CCOCC8)CSc8ccccc8)c(S(=O)(=O)C(F)(F)F)c7)cc6)CC5)C4)CC3)cc2)C(C)(C)C)cc1 (stereo partly drawn) [Compound 11, (2S,4R)-1-((2S)-2-(4-(4-(4-((4′-chloro-4-methyl-6-((4-(4-(((4-(((R)-4-morpholino-1-(phenylthio)butan-2-yl)amino)-3-((trifluoromethyl)sulfonyl)phenyl)sulfonyl)carbamoyl)phenyl)piperazin-1-yl)methyl)-2,3,4,5-tetrahydro-[1,1′-biphenyl]-4-yl)methyl)piperazin-1-yl)benzamido)butanamido)-3,3-dimethylbutanoyl)-4-hydroxy-N—((S)-1-(4-(4-methylthiazol-5-yl)phenyl)ethyl)pyrrolidine-2-carboxamide]	–
6.30 to 7.00	6.30 to 7.00	Cc1ncsc1-c1ccc([C@H](C)NC(=O)[C@@H]2C[C@@H](O)CN2C(=O)[C@@H](NC(=O)CNC(=O)c2ccc(N3CCN(CC4(C)CCC(c5ccc(Cl)cc5)=C(CN5CCN(c6ccc(C(=O)NS(=O)(=O)c7ccc(N[C@H](CCN8CCOCC8)CSc8ccccc8)c(S(=O)(=O)C(F)(F)F)c7)cc6)CC5)C4)CC3)cc2)C(C)(C)C)cc1 (stereo partly drawn) [Compound 10, (2S,4R)-1-((2S)-2-(2-(4-(4-((4′-chloro-4-methyl-6-((4-(4-(((4-(((R)-4-morpholino-1-(phenylthio)butan-2-yl)amino)-3-((trifluoromethyl)sulfonyl)phenyl)sulfonyl)carbamoyl)phenyl)piperazin-1-yl)methyl)-2,3,4,5-tetrahydro-[1,1′-biphenyl]-4-yl)methyl)piperazin-1-yl)benzamido)acetamido)-3,3-dimethylbutanoyl)-4-hydroxy-N—((S)-1-(4-(4-methylthiazol-5-yl)phenyl)ethyl)pyrrolidine-2-carboxamide]	–
> 7.70	> 7.70	Cc1ncsc1-c1ccc([C@H](C)NC(=O)[C@@H]2C[C@@H](O)CN2C(=O)[C@@H](NC(=O)CCCCCNC(=O)c2ccc(N3CCN(C[C@]4(C)CCC(c5ccc(Cl)cc5)=C(CN5CCN(c6ccc(C(=O)NS(=O)(=O)c7ccc(N[C@H](CCN8CCCOCC8)CSc8ccccc8)c(S(=O)(=O)C(F)(F)F)c7)cc6)CC5)C4)CC3)nn2)C(C)(C)C)cc1 [Compound 79]	–
> 7.70	> 7.70	Cc1ncsc1-c1ccc([C@H](C)NC(=O)[C@@H]2C[C@@H](O)CN2C(=O)[C@@H](NC(=O)CCCCCCNC(=O)c2ccc(N3CCN(C[C@]4(C)CCC(c5ccc(Cl)cc5)=C(CN5CCN(c6ccc(C(=O)NS(=O)(=O)c7ccc(N[C@H](CCN8C[C@H]9C[C@@H]8CO9)CSc8ccccc8)c(S(=O)(=O)C(F)(F)F)c7)cc6)CC5)C4)CC3)nc2)C(C)(C)C)cc1 [Compound 73]	pIC50 [1, 4]: 8.15; pIC50 [2, 6]: 7.86
> 7.70	> 7.70	Cc1ncsc1-c1ccc([C@H](C)NC(=O)[C@@H]2C[C@@H](O)CN2C(=O)[C@@H](NC(=O)CCCCCCC(=O)N2CCN(C[C@]3(C)CCC(c4ccc(Cl)cc4)=C(CN4CCN(c5ccc(C(=O)NS(=O)(=O)c6ccc(N[C@H](CCN7CCCCCC7)CSc7ccccc7)c([N+](=O)[O-])c6)cc5)CC4)C3)CC2)C(C)(C)C)cc1 [Compound 56]	–
6.30 to 7.00	7.00 to 7.70	Cc1ncsc1-c1ccc([C@H](C)NC(=O)[C@@H]2C[C@@H](O)CN2C(=O)[C@@H](NC(=O)CCCCCCC(=O)N2CCN(CC3(C)CCC(c4ccc(Cl)cc4)=C(CN4CCN(c5ccc(C(=O)NS(=O)(=O)c6ccc(N[C@H](CCN(CCO)C7CC7)CSc7ccccc7)c([N+](=O)[O-])c6)cc5)CC4)C3)CC2)C(C)(C)C)cc1 (stereo partly drawn) [Compound 44, (2S,4R)-1-((2S)-2-(8-(4-((4′-chloro-6-((4-(4-(((4-(((R)-4-(cyclopropyl(2-hydroxyethyl)amino)-1-(phenylthio)butan-2-yl)amino)-3-nitrophenyl)sulfonyl)carbamoyl)phenyl)piperazin-1-yl)methyl)-4-methyl-2,3,4,5-tetrahydro-[1,1′-biphenyl]-4-yl)methyl)piperazin-1-yl)-8-oxooctanamido)-3,3-dimethylbutanoyl)-4-hydroxy-N—((S)-1-(4-(4-methylthiazol-5-yl)phenyl)ethyl)pyrrolidine-2-carboxamide]	–
–	–	Cc1ncsc1-c1ccc([C@H](C)NC(=O)[C@@H]2C[C@@H](O)CN2C(=O)[C@@H](NC(=O)CN(C)CCCNC(=O)c2ccc(N3CCN(C[C@]4(C)CCC(c5ccc(Cl)cc5)=C(CN5CCN(c6ccc(C(=O)NS(=O)(=O)c7ccc(N[C@H](CCN8CCCOCC8)CSc8ccccc8)c(S(=O)(=O)C(F)(F)F)c7)cc6)CC5)C4)CC3)nn2)C(C)(C)C)cc1 [Compound 112]	pIC50 ([1]; MOLT-4, 48 h, read-out: Anti-Cancer Activity IC50 (48 hr) MOLT-4): 7.00 to 7.70; pIC50 ([2]; RS4-11, 48 h, read-out: Anti-Cancer Activity IC50 (48 hr) RS4, 11): > 7.70
5.00 to 6.30	7.00 to 7.70	COCC[C@H](CSc1ccccc1)Nc1ccc(S(=O)(=O)NC(=O)c2ccc(N3CCN(CC4=C(c5ccc(Cl)cc5)CCC(C)(CN5CCN(C(=O)CCCCCCC(=O)N[C@H](C(=O)N6C[C@H](O)C[C@H]6C(=O)N[C@@H](C)c6ccc(-c7scnc7C)cc6)C(C)(C)C)CC5)C4)CC3)cc2)cc1[N+](=O)[O-] (stereo partly drawn) [Compound 50, (2S,4R)-1-((2S)-2-(8-(4-((4′-chloro-6-((4-(4-(((4-(((R)-4-methoxy-1-(phenylthio)butan-2-yl)amino)-3-nitrophenyl)sulfonyl)carbamoyl)phenyl)piperazin-1-yl)methyl)-4-methyl-2,3,4,5-tetrahydro-[1,1′-biphenyl]-4-yl)methyl)piperazin-1-yl)-8-oxooctanamido)-3,3-dimethylbutanoyl)-4-hydroxy-N—((S)-1-(4-(4-methylthiazol-5-yl)phenyl)ethyl)pyrrolidine-2-carboxamide]	–
